Consider 15 molecules from patent publication US12466827B2, “1,3,4-oxadiazole derivative compounds as histone deacetylase 6 inhibitor, and the pharmaceutical composition comprising the same” (CHONG KUN DANG PHARMACEUTICAL CORP., priority 2020, dated 2025).

One test deals with T1, human recombinant HDAC1 (Homo sapiens, UniProt Q13547).
T1 construct: purchased Enzo Life Sciences, Inc. BML-SE456
The test can be described thus: In vitro HDAC enzyme activity inhibition assay (HDAC1). Particulars: Fluor de Lys-SIRT1 substrate 10 μM, 30° C., 60 minutes, fluorescence. The class given is biochemical. How it is done:
(§1) In order to confirm the selectivity of the compounds represented by Chemical Formula I of the present invention to HDAC6 through HDAC1 and HDAC6 enzyme activity inhibition experiments, a comparison experiment was performed using the material that has already been developed as a control group.
(§2) HDAC enzyme activity was measured using the HDAC Fluorimetric Drug Discovery Kit (Enzo Life Sciences, Inc., BML-AK511, 516). For the HDAC1 enzyme activity test, human recombinant HDAC1 (BML-SE456) was used as an enzyme source and Fluor de Lys-SIRT1 (BNL-KI177) was used as a substrate. After dispensing 5-fold diluted compounds into a 96-well plate, 0.3 μg of enzyme and 10 μM substrate were added to each well of the plate and allowed to react at 30° C. for 60 minutes. Next, Fluor de Lys Developer II (BML-KI176) was added and reacted for 30 minutes to complete the reaction, and then the fluorescence values (Ex 360, Em 460) were measured using a multi-plate reader (Flexstation 3, Molecular Device). The HDAC6 enzymes were tested using human recombinant HDAC6 (382180) from Calbiochem Inc., according to the same protocol as the HDAC1 enzyme activity test method. With respect to the final result values, respective IC50 values were calculated using GraphPad Prism 4.0 program, and results thereof were summarized in Table 4 below.

In a further test the target is T2, human recombinant HDAC6 (Homo sapiens, UniProt Q9UBN7).
T2 construct: purchased Calbiochem Inc. 382180
T2 sequence (Q9UBN7 1-1215): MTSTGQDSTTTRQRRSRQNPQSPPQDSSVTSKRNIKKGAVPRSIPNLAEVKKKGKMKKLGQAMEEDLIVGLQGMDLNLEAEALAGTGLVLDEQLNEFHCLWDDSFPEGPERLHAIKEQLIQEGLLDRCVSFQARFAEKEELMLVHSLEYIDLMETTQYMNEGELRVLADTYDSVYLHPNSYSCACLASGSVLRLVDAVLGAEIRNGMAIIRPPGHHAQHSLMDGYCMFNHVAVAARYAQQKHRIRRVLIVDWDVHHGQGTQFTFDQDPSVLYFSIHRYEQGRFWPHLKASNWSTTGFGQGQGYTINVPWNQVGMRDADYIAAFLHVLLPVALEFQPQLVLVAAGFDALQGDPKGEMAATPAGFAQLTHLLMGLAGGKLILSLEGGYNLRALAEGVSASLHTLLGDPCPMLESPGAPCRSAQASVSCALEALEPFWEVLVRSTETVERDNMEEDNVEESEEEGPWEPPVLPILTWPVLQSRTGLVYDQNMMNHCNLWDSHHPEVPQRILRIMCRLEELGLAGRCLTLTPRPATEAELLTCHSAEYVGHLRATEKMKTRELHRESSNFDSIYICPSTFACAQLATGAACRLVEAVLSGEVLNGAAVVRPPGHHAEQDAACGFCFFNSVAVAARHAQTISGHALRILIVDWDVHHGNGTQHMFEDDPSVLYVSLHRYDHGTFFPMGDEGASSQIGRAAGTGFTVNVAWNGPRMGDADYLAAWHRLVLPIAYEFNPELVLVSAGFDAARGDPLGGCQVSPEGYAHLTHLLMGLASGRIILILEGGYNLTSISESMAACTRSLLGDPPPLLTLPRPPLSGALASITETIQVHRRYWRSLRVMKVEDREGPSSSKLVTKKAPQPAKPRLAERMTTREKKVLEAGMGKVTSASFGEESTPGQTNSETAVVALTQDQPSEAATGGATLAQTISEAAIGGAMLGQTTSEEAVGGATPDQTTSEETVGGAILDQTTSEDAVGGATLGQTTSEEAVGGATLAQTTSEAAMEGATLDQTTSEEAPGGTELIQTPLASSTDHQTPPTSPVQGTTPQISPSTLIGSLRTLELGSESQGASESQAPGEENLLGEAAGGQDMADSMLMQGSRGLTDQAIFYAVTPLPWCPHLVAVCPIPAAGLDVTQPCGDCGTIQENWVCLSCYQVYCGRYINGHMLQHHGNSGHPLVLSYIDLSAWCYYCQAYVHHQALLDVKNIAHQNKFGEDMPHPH
Nature of the test: In vitro HDAC enzyme activity inhibition assay (HDAC6). Format: biochemical. Conditions: for HDAC6 selectivity (fold): HDAC6 over HDAC1; for IC50: same protocol as the HDAC1 test, human recombinant HDAC6 (Calbiochem). The procedure: as §1, §2

T1 sequence (Q13547 whole entry): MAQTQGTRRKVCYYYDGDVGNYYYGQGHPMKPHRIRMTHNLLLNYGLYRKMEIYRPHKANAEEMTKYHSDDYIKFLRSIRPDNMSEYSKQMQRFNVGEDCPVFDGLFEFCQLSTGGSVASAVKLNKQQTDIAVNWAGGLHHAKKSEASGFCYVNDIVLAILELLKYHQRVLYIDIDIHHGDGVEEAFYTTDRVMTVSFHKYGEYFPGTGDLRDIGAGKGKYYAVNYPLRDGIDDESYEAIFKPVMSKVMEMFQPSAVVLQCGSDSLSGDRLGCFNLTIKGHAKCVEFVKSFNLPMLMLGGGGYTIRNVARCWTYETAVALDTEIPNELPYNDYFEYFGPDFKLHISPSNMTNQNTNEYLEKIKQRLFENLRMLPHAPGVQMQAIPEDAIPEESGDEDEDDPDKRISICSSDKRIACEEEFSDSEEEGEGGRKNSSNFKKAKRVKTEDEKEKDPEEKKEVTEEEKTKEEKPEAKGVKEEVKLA

The IC50 is the concentration needed to halve the response being measured. In the case of `O=S(=O)(N1CCN(C2CCC2)CC1)N(Cc1cn2ccc(-c3nnc(C(F)F)o3)cc2n1)c1cccc(F)c1` [Compound 4301, 4-cyclobutyl-N-((7-(5-(difluoromethyl)-1,3,4-oxadiazol-2-yl)imidazo[1,2-a]pyridin-2-yl)methyl)-N-(3-fluorophenyl)piperazine-1-sulfonamide], the IC50 on human recombinant HDAC1 was above 50000 nM. Also, on human recombinant HDAC6, the “HDAC6 selectivity (fold)” value turned out to be 595 fold and the IC50 is 84.1 nM.
On to `O=S(=O)(N1CCN(C2CC3(COC3)C2)CC1)N(Cc1cn2ccc(-c3nnc(C(F)F)o3)cc2n1)c1cccc(F)c1` [Compound 4623, N-((7-(5-(difluoromethyl)-1,3,4-oxadiazol-2-yl)imidazo[1,2-a]pyridin-2-yl)methyl)-N-(3-fluorophenyl)-4-(2-oxaspiro[3.3]heptan-6-yl)piperazine-1-sulfonamide], for which the 50% inhibitory concentration (IC50) on human recombinant HDAC1 is above 50000 nM. Also, on human recombinant HDAC6, the “HDAC6 selectivity (fold)” value is 806 fold and the half-inhibitory concentration (IC50) was 62 nM.
As to `O=S(=O)(N1CCN(C2CCC(F)(F)CC2)CC1)N(Cc1cn2ccc(-c3nnc(C(F)F)o3)cc2n1)c1cccc(F)c1` [Compound 4305, 4-(4,4-difluorocyclohexyl)-N-((7-(5-(difluoromethyl)-1,3,4-oxadiazol-2-yl)imidazo[1,2-a]pyridin-2-yl)methyl)-N-(3-fluorophenyl)piperazine-1-sulfonamide], the IC50 was above 50000 nM on human recombinant HDAC1 and 114 nM at human recombinant HDAC6. In addition, the “HDAC6 selectivity (fold)” value on human recombinant HDAC6 stood at 437 fold.
Take `O=S(=O)(C1CCN(C2COC2)CC1)N(Cc1cn2ccc(-c3nnc(C(F)F)o3)cc2n1)c1cccc(F)c1` [Compound 4241]: the IC50 was above 50000 nM at human recombinant HDAC1 and 69.9 nM on human recombinant HDAC6. Moreover, the “HDAC6 selectivity (fold)” value at human recombinant HDAC6 was 715 fold.
Regarding `COC(=O)N1CCN(S(=O)(=O)N(Cc2cn3ccc(-c4nnc(C(F)F)o4)cc3n2)c2cccc(F)c2)CC1` [Compound 4313, methyl 4-(N-((7-(5-(difluoromethyl)-1,3,4-oxadiazol-2-yl)imidazo[1,2-a]pyridin-2-yl)methyl)-N-(3-fluorophenyl)sulfamoyl)piperazine-1-carboxylate], the 50% inhibitory concentration (IC50) on human recombinant HDAC1 was above 50000 nM. For the same molecule, at human recombinant HDAC6, the “HDAC6 selectivity (fold)” value is given as 371 fold and the IC50 stood at 135 nM.
Turning to `O=S(=O)(C1CCN(C2CC3(COC3)C2)CC1)N(Cc1cn2ccc(-c3nnc(C(F)F)o3)cc2n1)c1cccc(F)c1` [Compound 4617, N-((7-(5-(difluoromethyl)-1,3,4-oxadiazol-2-yl)imidazo[1,2-a]pyridin-2-yl)methyl)-N-(3-fluorophenyl)-1-(2-oxaspiro[3.3]heptan-6-yl)piperidine-4-sulfonamide], the IC50 on human recombinant HDAC1 is above 50000 nM. Moreover, at human recombinant HDAC6, the “HDAC6 selectivity (fold)” value worked out at 666 fold and the IC50 is 75 nM.
In the same order, the values of `O=S(=O)(C1CCN(C2CCC(F)(F)CC2)CC1)N(Cc1cn2ccc(-c3nnc(C(F)F)o3)cc2n1)c1ccccc1` [Compound 4220, 1-(4,4-difluorocyclohexyl)-N-((7-(5-(difluoromethyl)-1,3,4-oxadiazol-2-yl)imidazo[1,2-a]pyridin-2-yl)methyl)-N-phenylpiperidine-4-sulfonamide] are above 50000 nM, 320 fold and 156 nM.
In the same order, the values of `CS(=O)(=O)N1CCN(S(=O)(=O)N(Cc2cn3ccc(-c4nnc(C(F)F)o4)cc3n2)c2cccc(F)c2)CC1` [Compound 4312, N-((7-(5-(difluoromethyl)-1,3,4-oxadiazol-2-yl)imidazo[1,2-a]pyridin-2-yl)methyl)-N-(3-fluorophenyl)-4-(methylsulfonyl)piperazine-1-sulfonamide] are above 50000 nM, 530 fold and 94.3 nM.
For `O=S(=O)(C1CCN(C2CCC(F)(F)CC2)CC1)N(Cc1cn2ccc(-c3nnc(C(F)F)o3)cc2n1)c1cccc(F)c1` [Compound 4244, 1-(4,4-difluorocyclohexyl)-N-((7-(5-(difluoromethyl)-1,3,4-oxadiazol-2-yl)imidazo[1,2-a]pyridin-2-yl)methyl)-N-(3-fluorophenyl)piperidine-4-sulfonamide], at human recombinant HDAC1, the 50% inhibitory concentration (IC50) is above 50000 nM. In addition, on human recombinant HDAC6, the “HDAC6 selectivity (fold)” value turned out to be 525 fold and the IC50 stood at 95.3 nM.
With `O=S(=O)(N1CCN(C2CCOCC2)CC1)N(Cc1cn2ccc(-c3nnc(C(F)F)o3)cc2n1)c1ccccc1` [Compound 4263, N-((7-(5-(difluoromethyl)-1,3,4-oxadiazol-2-yl)imidazo[1,2-a]pyridin-2-yl)methyl)-N-phenyl-1-(tetrahydro-2H-pyran-4-yl)piperazine-1-sulfonamide], the IC50 on human recombinant HDAC1 is above 50000 nM; at human recombinant HDAC6, 126 nM. For the same molecule, the “HDAC6 selectivity (fold)” value at human recombinant HDAC6 was 397 fold.
Take `O=S(=O)(N1CCN(c2ncccn2)CC1)N(Cc1cn2ccc(-c3nnc(C(F)F)o3)cc2n1)c1ccccc1` [Compound 4275, N-((7-(5-(difluoromethyl)-1,3,4-oxadiazol-2-yl)imidazo[1,2-a]pyridin-2-yl)methyl)-N-phenyl-4-(pyrimidin-2-yl)piperazine-1-sulfonamide]: the IC50 at human recombinant HDAC1 is above 50000 nM; on human recombinant HDAC6, 142 nM. Besides, the “HDAC6 selectivity (fold)” value on human recombinant HDAC6 is 351 fold.
Take `CC(C)N1CCN(S(=O)(=O)N(Cc2cn3ccc(-c4nnc(C(F)F)o4)cc3n2)c2cccc(F)c2)CC1` [Compound 4299, N-((7-(5-(difluoromethyl)-1,3,4-oxadiazol-2-yl)imidazo[1,2-a]pyridin-2-yl)methyl)-N-(3-fluorophenyl)-4-isopropylpiperazine-1-sulfonamide]: the IC50 at human recombinant HDAC1 is above 50000 nM. Besides, on human recombinant HDAC6, the “HDAC6 selectivity (fold)” value was found to be 488 fold and the IC50 was determined as 102 nM.
In the same order, the values of `O=S(=O)(C1CCN(C2CCOCC2)CC1)N(Cc1cn2ccc(-c3nnc(C(F)F)o3)cc2n1)c1cccc(F)c1` [Compound 4243, N-((7-(5-(difluoromethyl)-1,3,4-oxadiazol-2-yl)imidazo[1,2-a]pyridin-2-yl)methyl)-N-(3-fluorophenyl)-1-(tetrahydro-2H-pyran-4-yl)piperidine-4-sulfonamide] are above 50000 nM, 530 fold and 94.3 nM.
In the case of `O=C(N1CCN(S(=O)(=O)N(Cc2cn3ccc(-c4nnc(C(F)F)o4)cc3n2)c2ccccc2)CC1)C(F)(F)F` [Compound 4270, N-((7-(5-(difluoromethyl)-1,3,4-oxadiazol-2-yl)imidazo[1,2-a]pyridin-2-yl)methyl)-N-phenyl-4-(2,2,2-trifluoroacetyl)piperazine-1-sulfonamide], the IC50 at human recombinant HDAC1 is above 50000 nM. At human recombinant HDAC6, the “HDAC6 selectivity (fold)” value is 327 fold and the IC50 was 153 nM.
In the case of `O=S(=O)(C1CCN(C2CCOCC2)CC1)N(Cc1cn2ccc(-c3nnc(C(F)F)o3)cc2n1)c1ccccc1` [Compound 4219, N-((7-(5-(difluoromethyl)-1,3,4-oxadiazol-2-yl)imidazo[1,2-a]pyridin-2-yl)methyl)-N-phenyl-1-(tetrahydro-2H-pyran-4-yl)piperidine-4-sulfonamide], the 50% inhibitory concentration (IC50) at human recombinant HDAC1 is above 50000 nM. In addition, on human recombinant HDAC6, the “HDAC6 selectivity (fold)” value was 482 fold and the IC50 came to 104 nM.
